In patent publication US20100285053A1, “Immunosuppressive Extract Of Cordyceps Sinensis And Uses Thereof” (Dalhousie University, priority 2006, published 2010):

Tests used:
Adherent macrophages = test: Effect of MAPK inhibitors on IL-6 production by stimulated macrophages; type: cell-based, murine; settings: 25 μM inhibitor 30 min pre-incubation, then ACE 3.4 mg/mL 48 hours
Experimental: Adherent macrophages were pre-incubated with media, vehicle (0.06% DMSO; Sigma), 25 μM ERK inhibitor, (PD98059; Calbiochem), or 25 μM p38 inhibitor (SB203580; Calbiochem) for 30 min at 37° C. before being treated with test agent. The cells were further incubated for 48 hours with ACE (3.4 mg/mL) or Zymosan (0.01%). DMSO was used as a vehicle control. IL-6 production was assayed using ELISA.

[1] = test system: Peritoneal elicited macrophages; test: Endotoxin test: Polymyxin B pre-treatment, IL-6 production by macrophages; type: cell-based; settings: Polymyxin B 20 μg/ml 30 min, then LPS 10 ηg/ml
Experimental: To test for LPS contamination, macrophages were pre-treated with Polymyxin B, followed by incubation with ACE. Peritoneal elicited macrophages were pre-incubated with media or LPS inhibitor Polymyxin B (Calbiochem) at 20 μg/ml for 30 min at 37° C. Cells were further incubated with LPS (10 ηg/ml) or ACE (3.4 mg/ml). […] Results are shown as levels of IL-6 production, which were measured using ELISA. Means and standard deviations of triplicate samples are shown. Data are representative of three separate experiments.

Compound | IL-6 production by ACE treated macrophages in presence of inhibitor (Adherent macrophages) | reduction of LPS activity (IL-6 production) [1] [%]
COc1cccc(-c2cc(=O)c3ccccc3o2)c1N [PD98059] | marked decreases of IL-6 production | –
C[S+]([O-])c1ccc(-c2nc(-c3ccncc3)c(-c3ccc(F)cc3)[nH]2)cc1 (stereo not drawn) [SB203580] | marked decreases of IL-6 production | –
Polymyxin B | – | ~80
